Experimental findings from publication PMC9917830, “New Piperazine Derivatives of 6-Acetyl-7-hydroxy-4-methylcoumarin as 5-HT1A Receptor Agents” (International Journal of Molecular Sciences, 2023) are described below.

The target in data set [1] is T1, 5-HT1A receptor (Rattus norvegicus, UniProt P19327).
T1 construct: Brains were rapidly removed and placed on ice; from tissue; host or cells: Sprague–Dawley rat hippocampus membranes
T1 sequence (P19327 1-422): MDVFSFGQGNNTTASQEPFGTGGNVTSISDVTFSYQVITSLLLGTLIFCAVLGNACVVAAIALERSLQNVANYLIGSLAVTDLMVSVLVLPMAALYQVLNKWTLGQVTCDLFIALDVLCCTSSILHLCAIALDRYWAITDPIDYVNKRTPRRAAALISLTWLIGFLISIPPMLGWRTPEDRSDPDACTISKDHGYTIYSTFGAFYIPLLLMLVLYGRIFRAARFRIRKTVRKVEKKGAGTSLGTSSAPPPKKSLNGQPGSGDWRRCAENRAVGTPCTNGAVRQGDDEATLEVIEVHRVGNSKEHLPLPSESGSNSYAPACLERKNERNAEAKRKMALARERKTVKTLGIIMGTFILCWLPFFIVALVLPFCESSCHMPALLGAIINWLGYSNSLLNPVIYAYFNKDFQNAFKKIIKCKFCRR
Put plainly: 5-HT1A receptor activation in the [35S]GTP-γ-S assay (agonist and antagonist mode). The conditions noted are these: for IC50: read-out: 5-HT1A Receptor Inhibition IC50 (nM, 95% CI); for Emax / EC50: agonist mode; for Emax: efficacy ± SEM; for EC50: rat hippocampal membranes; for agonist or antagonist properties at the 5-HT1A receptor: result in words. The format is biochemical. As for the experimental part: Sprague–Dawley rats were sacrificed by isoflurane overdose. Brains were rapidly removed and placed on ice. Hippocampi (for 5-HT1A assays) and frontal cortices (for 5-HT2A assays) were dissected on a Petri dish. The tissue from 10 rats was homogenized in 30 vol. homogenization buffer (50 mM Tris-HCl, […], 1 mM EDTA, 1 mM dithiothreitol) with a hand-held Teflon-glass homogenizer. The homogenate was centrifuged at 48,000× g at 4 °C for 15 min. […] The centrifugation and suspension steps were repeated twice. The final pellet was homogenized in 5 vol. 50 mM Tris-HCl, pH = 7.4 buffer and stored at −80 °C for not more than 6 months.
Non-specific binding was determined with 100 µM of unlabeled GTPγS. The compounds were tested in both the agonist and antagonist mode. […] The final DMSO concentration in the assay was 5%. The reaction mixture was incubated for 90 min at 30 °C on an orbital shaker set at 250 rpm. The reaction mixture was then deposited under vacuum with the FilterMate Harvester® (Perkin Elmer, Waltham, MA, USA) onto Unifilter® GF/C Plates (Perkin Elmer, Waltham, MA, USA) presoaked with wash buffer (50 mM Tris-HCl, pH = 7.4). The wells were then rapidly washed with 2 mL of wash buffer. The filter plates were dried overnight at room temperature. Once completely dry, 35 µL of MicroScint PS (Perkin Elmer, Waltham, MA, USA) scintillation fluid was added to each well. Radioactivity was counted in a MicroBeta^2 LumiJet scintillation counter (Perkin Elmer, Waltham, MA, USA). […] The curves were fitted with the three-parameter non-linear regression model.
For orientation: Binding of GTPγS marks nucleotide exchange on a G protein.

For data set [2], the target named is T2, 5-HT2A receptor (Rattus norvegicus, UniProt P14842).
T2 construct: Brains were rapidly removed and placed on ice; from tissue; host or cells: Sprague–Dawley rat frontal cortex membranes
T2 sequence (P14842 whole entry): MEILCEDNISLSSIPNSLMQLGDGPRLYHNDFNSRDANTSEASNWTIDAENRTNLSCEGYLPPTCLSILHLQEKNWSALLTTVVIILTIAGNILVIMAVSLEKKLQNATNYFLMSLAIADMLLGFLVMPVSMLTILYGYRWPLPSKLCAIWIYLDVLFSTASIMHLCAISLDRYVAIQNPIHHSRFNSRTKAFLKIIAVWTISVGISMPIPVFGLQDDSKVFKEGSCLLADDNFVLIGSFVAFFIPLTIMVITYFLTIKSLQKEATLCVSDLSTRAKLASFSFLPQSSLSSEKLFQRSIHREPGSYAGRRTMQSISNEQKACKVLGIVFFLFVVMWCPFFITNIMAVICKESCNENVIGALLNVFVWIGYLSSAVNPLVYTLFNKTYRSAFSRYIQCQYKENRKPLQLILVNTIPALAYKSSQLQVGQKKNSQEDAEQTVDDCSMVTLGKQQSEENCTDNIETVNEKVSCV
Put plainly: Competitive 5-HT2A binding assay with [3H]ketanserin, rat frontal cortex membranes. Particulars: 1 nM [3H]ketanserin. The method, then: (§1) Sprague–Dawley rats were sacrificed by isoflurane overdose. Brains were rapidly removed and placed on ice. Hippocampi (for 5-HT1A assays) and frontal cortices (for 5-HT2A assays) were dissected on a Petri dish. The tissue from 10 rats was homogenized in 30 vol. homogenization buffer (50 mM Tris-HCl, […], 1 mM EDTA, 1 mM dithiothreitol) with a hand-held Teflon-glass homogenizer. The homogenate was centrifuged at 48,000× g at 4 °C for 15 min. The pellet was suspended and homogenized in homogenization buffer and incubated for 10 min at 36 °C. The centrifugation and suspension steps were repeated twice. The final pellet was homogenized in 5 vol. 50 mM Tris-HCl, pH = 7.4 buffer and stored at −80 °C for not more than 6 months.
(§2) Non-specific binding was determined with 10 μM serotonin in both assays. The final DMSO concentration in the assay was 5%. After incubation, the reaction mixture was deposited with the FilterMate-96 Harvester (Perkin Elmer, Waltham, MA, USA) onto Unifilter® GF/C plates (Perkin Elmer, Waltham, MA, USA) presoaked in 0.4% PEI for 1h. Each well was washed with 2 mL of 50 mM Tris-HCl (pH 7.4) buffer to separate bound ligands from free ones. Plates were left to dry overnight. Then, 35 µL of Microscint-20 scintillation fluid (Perkin Elmer, Waltham, MA, USA) was added to each filter well and left to equilibrate for 2 h. Filter-bound radioactivity was counted in a MicroBeta^2 LumiJet scintillation counter (Perkin Elmer, Waltham, MA, USA). Binding curves were fitted with one-site non-linear regression. Binding affinity (pKi ± SEM and Ki ± 95% confidence intervals) for each compound was calculated from […] values with the Cheng-Prusoff equation from two separate experiments.

For data set [3], the target named is T1, 5-HT1A receptor. The experiment in a line: Competitive 5-HT1A binding assay with [3H]8-OH-DPAT, rat hippocampal membranes. The conditions noted are these: 1 nM [3H]8-OH-DPAT. The method, then: as §1, §2
The mark [4] stands for this setting: 95% CI in brackets, read-out: 5-HT2A Affinity Ki (nM, 95% CI).
Where [5] appears, read: 95% CI in brackets, read-out: 5-HT1A Affinity Ki (nM, 95% CI).
The mark [6] stands for this setting: 95% CI in brackets, read-out: 5-HT1A Receptor Stimulation EC50 (nM, 95% CI).
The mark [7] stands for this setting: ± SEM, read-out: 5-HT2A Affinity pKi (converted).
[8] abbreviates: ± SEM, two experiments, read-out: 5-HT1A Affinity pKi (nM ± SEM) (converted).

Where two headings read alike, the source gives them in different places.

Take `CC(=O)c1cc2c(C)cc(=O)oc2cc1OCCCCN1CCOCC1` [Compound 13, 6-Acetyl-7-[4-(morpholin-4-yl)butoxy]-4-methylchromen-2-one]: the melting point (in general, the temperature, or range, at which the solid turns liquid) lay within 115 to 116 °C. Moreover, the IC50 – broadly, the midpoint of a concentration-inhibition curve – in data set [1] was 93400 nM. Besides, the Ki in data set [2] (setting [4]) turned out to be 6390 nM. The Ki in data set [3] (setting [5]) is 9620 nM.

With `CC(=O)c1cc2c(C)cc(=O)oc2cc1OCCCCN1CCN(c2cc(C)cc(C)c2)CC1` [Compound 10, 6-Acetyl-7-{4-[4-(3,5-dimethylphenyl)piperazin-1-yl]butoxy}-4-methylchromen-2-one], the melting point is 101 to 102 °C. In addition, the Emax (in general, the maximal effect, on the per cent scale that the assay sets) in data set [1] came to 139 ± 1.4%. In data set [1] (setting [6]), the EC50 is 475 nM. In addition, in data set [2] (setting [7]), the Ki was 513 nM. The Ki in data set [3] (setting [5]) came to 22.4 nM.

For the compound `CC(=O)c1cc2c(C)cc(=O)oc2cc1OCCCCN1CCN(c2ccc([N+](=O)[O-])cc2)CC1` [Compound 12, 6-Acetyl-7-{4-[4-(4-nitrophenyl)piperazin-1-yl]butoxy}-4-methylchromen-2-one], the melting point fell in the range of 138 to 139 °C. Also, in data set [1], the IC50 was found to be 53400 nM. For the same compound, in data set [2] (setting [4]), the Ki was determined as 1500 nM. Besides, the Ki in data set [2] (setting [7]) was 1550 nM. The Ki in data set [3] (setting [5]) came to 1800 nM. For the same compound, the Ki in data set [3] (setting [8]) was 1780 nM.

`CC(=O)c1cc2c(C)cc(=O)oc2cc1OCCCCN1CCN(c2cnccn2)CC1` [Compound 15, 6-Acetyl-7-{4-[4-(pyrazin-2-yl)piperazin-1-yl]butoxy}-4-methylchromen-2-one]: the melting point is 150 to 151 °C. Moreover, in data set [1], the Emax is 170 ± 1.3% and the “agonist or antagonist properties at the 5-HT1A receptor” value (“agonist or antagonist properties” for short) is recorded as “agonistic profile”. Further, the EC50 in data set [1] (setting [6]) was found to be 1300 nM. Further, the Ki in data set [2] (setting [4]) was 6600 nM. In addition, the Ki in data set [3] (setting [5]) was 25 nM.

Regarding `CC(=O)c1cc2c(C)cc(=O)oc2cc1OCCCCN1CCN(c2cc(C)ccc2C)CC1` [Compound 11, 6-Acetyl-7-{4-[4-(2,5-dimethylphenyl)piperazin-1-yl]butoxy}-4-methylchromen-2-one], the melting point fell in the range of 130 to 131 °C. Moreover, the IC50 in data set [1] was 21900 nM. The Ki in data set [2] (setting [4]) was 3710 nM. The Ki in data set [2] (setting [7]) was 3980 nM. Further, in data set [3] (setting [5]), the Ki turned out to be 174 nM.

The compound `CC(=O)c1cc2c(C)cc(=O)oc2cc1OCCCCN1CCN(c2ccc(Br)cc2)CC1` [Compound 5, 6-Acetyl-7-{4-[4-(4-bromophenyl)piperazin-1-yl]butoxy}-4-methylchromen-2-one] displayed a melting point of 145 to 146 °C. Also, in data set [1], the half-maximal inhibitory concentration (IC50) was determined as 63200 nM and the “agonist or antagonist properties” value is “antagonistic properties”. Further, the Ki in data set [2] (setting [4]) stood at 1350 nM. Also, the Ki in data set [3] (setting [5]) was 1.4 nM.

`COc1ccccc1N1CCN(CCCCOc2cc3oc(=O)cc(C)c3cc2C(C)=O)CC1` [Compound 1, 6-Acetyl-7-{4-[4-(2-methoxyphenyl)piperazin-1-yl]butoxy}-4-methylchromen-2-one] came in with a melting point of 126 to 127 °C. Further, in data set [1], the IC50 amounted to 301 nM and the “agonist or antagonist properties” value is reported as “antagonistic properties”. Further, in data set [2] (setting [4]), the Ki worked out at 1420 nM. Moreover, the Ki in data set [3] (setting [5]) was 5.75 nM.

With `COc1cccc(N2CCN(CCCCOc3cc4oc(=O)cc(C)c4cc3C(C)=O)CC2)c1` [Compound 2, 6-Acetyl-7-{4-[4-(3-methoxyphenyl)piperazin-1-yl]butoxy}-4-methylchromen-2-one], the Emax in data set [1] stood at 146 ± 1.1%. Further, the EC50 in data set [1] (setting [6]) is 181 nM. Also, in data set [1], the “agonist or antagonist properties” value is given as “agonistic activity”. The Ki in data set [2] (setting [4]) is 1160 nM; in data set [2] (setting [7]), 1170 nM; in data set [3] (setting [5]), 12.9 nM.

Turning to `CC(=O)c1cc2c(C)cc(=O)oc2cc1OCCCCN1CCN(c2cccc(Cl)c2Cl)CC1` [Compound 9, 6-Acetyl-7-{4-[4-(2,3-dichlorophenyl)piperazin-1-yl]butoxy}-4-methylchromen-2-one], the melting point fell in the range of 111 to 112 °C. For the same compound, the Emax in data set [1] turned out to be 133 ± 1.3%. Besides, in data set [1] (setting [6]), the EC50 stood at 149 nM. Further, the Ki in data set [2] (setting [4]) was determined as 1290 nM. Besides, the Ki in data set [2] (setting [7]) was 1230 nM. The Ki in data set [3] (setting [5]) is 6.3 nM.

For the compound `CC(=O)c1cc2c(C)cc(=O)oc2cc1OCCCCN1CCN(c2ccccc2Br)CC1` [Compound 3, 6-Acetyl-7-{4-[4-(2-bromophenyl)piperazin-1-yl]butoxy}-4-methylchromen-2-one], the melting point fell in the range of 121 to 122 °C. In addition, in data set [1], the IC50 is 5180 nM and the “agonist or antagonist properties” value was “antagonistic properties”. Further, the Ki in data set [2] (setting [4]) turned out to be 1020 nM. For the same compound, the Ki in data set [3] (setting [5]) worked out at 1.96 nM.

In turn, `CC(=O)c1cc2c(C)cc(=O)oc2cc1OCCCCN1CCN(c2ccccc2Cl)CC1` [Compound 7, 6-Acetyl-7-{4-[4-(2-chlorophenyl)piperazin-1-yl]butoxy}-4-methylchromen-2-one] came in with a melting point of 132 to 133 °C. Moreover, in data set [1], the Emax stood at 130 ± 1.4% and the “agonist or antagonist properties” value is given as “strongest agonist”. Also, the EC50 in data set [1] (setting [6]) is 49 nM. Moreover, the Ki in data set [2] (setting [4]) turned out to be 2080 nM. The Ki in data set [3] (setting [5]) was 0.57 nM. Moreover, the Ki in data set [3] (setting [8]) was 0.55 nM.

With `CC(=O)c1cc2c(C)cc(=O)oc2cc1OCCCCN1CCN(c2ccccc2F)CC1` [Compound 6, 6-Acetyl-7-{4-[4-(2-fluorophenyl)piperazin-1-yl]butoxy}-4-methylchromen-2-one], the melting point lay within 112 to 113 °C. Besides, the Emax in data set [1] turned out to be 139 ± 1.1%. Also, the EC50 in data set [1] (setting [6]) came to 101 nM. Besides, the EC50 in data set [1] (read-out: 5-HT1A Receptor Stimulation pEC50 (nM ± SEM) (converted)) was 102 nM. In data set [2] (setting [4]), the Ki is 1470 nM. Also, the Ki in data set [3] (setting [5]) worked out at 1.04 nM. In data set [3] (setting [8]), the Ki is 1.07 nM.

Regarding `CC(=O)c1cc2c(C)cc(=O)oc2cc1OCCCCN1CCN(c2ccccc2C#N)CC1` [Compound 8, 6-Acetyl-7-{4-[4-(2-cyanophenyl)piperazin-1-yl]butoxy}-4-methylchromen-2-one], the melting point fell in the range of 117 to 118 °C. In addition, the Emax in data set [1] turned out to be 124 ± 1.1%. Further, in data set [1] (setting [6]), the EC50 stood at 59 nM. In data set [2] (setting [4]), the Ki came out at 705 nM. Further, the Ki in data set [3] (setting [5]) was 9.44 nM.

For `CC(=O)c1cc2c(C)cc(=O)oc2cc1OCCCCN1CCN(c2ccncc2)CC1` [Compound 14], the melting point lay within 107 to 108 °C. The IC50 in data set [1] was 25000 nM. Moreover, the Ki in data set [2] (setting [4]) worked out at 3360 nM. Also, in data set [3] (setting [5]), the Ki was 1660 nM.
